Test results: patent US7354571B2, “Photoprotective compositions comprising methyltrialkylsilanes containing a cinnamate, cinnamamide, benzalmalonamide or benzalmalonate function” (L'Oreal, priority 2003, dated 2008)

Assay: UV absorption in ethanol
Format: physicochemical
Conditions: for E1% / εmax: at λmax

Row | SMILES | λmax | E1% | εmax | E1% (listed as Example 2) | εmax (listed as Example 2)
1 | COC(=O)C(=Cc1ccc(OC[Si](C)(C)C)cc1)C(=O)OC [Example 1, dimethyl 2-(4-trimethylsilanylmethoxy)benzylidenemalonate] | λmax = 317 nm, | E1% = 840. | εmax = 27 085, | E1% = 820. | εmax = 26 440,
2 | CCOC(=O)C(=Cc1ccc(OC[Si](C)(C)C)cc1)C(=O)OCC [Example 3, diethyl 2-(4-trimethylsilanylmethoxy)benzylidenemalonate] | λmax = 316 nm, | E1% = 750. | εmax = 26 290, | – | –
3 | CC(C)COC(=O)C(=Cc1ccc(OC[Si](C)(C)C)cc1)C(=O)OCC(C)C [Example 4, diisobutyl 2-(4-trimethylsilanylmethoxy)benzylidenemalonate] | λmax = 316 nm, | E1% = 663. | εmax = 26 960, | – | –
4 | CC(C)(C)COC(=O)C(=Cc1ccc(OC[Si](C)(C)C)cc1)C(=O)OCC(C)(C)C [Example 5, dineopentyl 2-(4-trimethylsilanylmethoxy)benzylidenemalonate] | λmax = 317 nm, | E1% = 592. | εmax = 25 730, | – | –
5 | CC1(C)OC(=O)C(=Cc2ccc(OC[Si](C)(C)C)cc2)C(=O)O1 [Example 6, 2,2-dimethyl-5-[4-(trimethylsilanylmethoxy)benzylidene]-1,3-dioxane-4,6-dione] | λmax = 370 nm, | E1% = 756. | εmax = 25 230, | – | –
6 | CCCCC(CC)COC(=O)C(=Cc1ccc(OC[Si](C)(C)C)c(OC)c1)C(=O)OCC(CC)CCCC (centres unmarked) [Example 7, bis(2-ethylhexyl) 2-[3-methoxy-4-(trimethylsilanylmethoxy)benzylidene]malonate] | λmax = 331 nm, | E1% = 331. | εmax = 18 170, | – | –
7 | COC(=O)C(=Cc1ccc(OC[Si](C)(C)COc2ccc(C=C(C(=O)OC)C(=O)OC)cc2)cc1)C(=O)OC [Example 9, dimethyl 2-(4-{[({4-[3-methoxy-2-(methoxycarbonyl)-3-oxoprop-1-enyl]phenoxy}methyl)(dimethyl)silyl]methoxy}benzylidene)malonate] | λmax = 316 nm, | E1% = 903. | εmax = 50 270, | – | –
8 | C[Si](C)(C)COc1ccc(C=C(C(N)=O)C(N)=O)cc1 [Example 10, 2-[4-(trimethylsilanylmethoxy)benzylidene]malonamide] | λmax = 310 nm, | E1% = 696. | εmax = 20 350, | – | –
9 | CC(C)OC(=O)/C=C/c1ccc(OC[Si](C)(C)C)cc1 [Example 11, isopropyl 2-(4-trimethylsilanylmethoxy)cinnamate] | λmax = 310 nm, | E1% = 711. | εmax = 20 800, | – | –
10 | COc1ccc(C=C(C(=O)OC[Si](C)(C)C)C(=O)OC[Si](C)(C)C)cc1 [Example 13, di(methyltrimethylsilanyl) 2-(4-methoxybenzylidene)malonate] | λmax = 313 nm, | E1% = 653. | εmax = 25 770, | – | –
